Measured values as given in patent US9643951B2, “Compound having somatostatin receptor agonistic activity and pharmaceutical use thereof” (ONO PHARMACEUTICAL CO., LTD., priority 2013, dated 2017).

How the values were obtained:
human SSTR2 = biological target: T1, human SSTR2 (Homo sapiens, UniProt P30874); assay: Evaluation of SSTR2 agonistic activity using cells expressing human SSTR2 (suppression of forskolin-stimulated cAMP production, SSTR2-CHO-K1); format: cell-based
T1 construct: Myc; expressed in transfected cells
Method: Evaluation of SSTR2 Agonistic Activity Using Cells Expressing Human SSTR2
(1) Isolation of Human SSTR2 Gene
Human brain cDNA was purchased from Ambion (catalogue No.: 7962; Lot No.: 040200121). PCR primers, hSSTR2_F1_XhoI: 5′-[…]-3′ (SEQ ID NO: 1) and hSSTR2_R1_EcoRI: 5′-[…]-3′ (SEQ ID NO: 2) were designed on the basis of the sequence GenBank NM_001050.
PCR reaction (95° C. for 2 min.→[98° C. for 10 sec., 60° C. for 30 sec. and 68° C. for 90 sec.]×30 cycles) was carried out using the human brain cDNA as a template and using KOD-plus-(TOYOBO Co., Ltd.). The amplified PCR product was subjected to 1% agarose gel electrophoresis, purified using QIAquick Gel Extraction Kit (QIAGEN) and digested with restriction enzymes XhoI and EcoRI. The digested fragments were ligated to an expression vector (pIRESneo-Myc) using the DNA Ligation Kit Ver. 2 (Takara) and used for transformation of E. coli DH5a. The plasmid pIRESneo-Myc/hSSTR2 was prepared and the DNA sequence thereof was confirmed.
(2) Culture of CHO-K1 Cells
CHO-K1 (−) was cultured in Ham's F-12 medium (containing foetal bovine serum (10%), penicillin (100 U/mL) and streptomycin (0.1 mg/mL)). The transduced cells were cultured in the same medium supplemented with Geneticin (1 mg/mL).
(3) Transduction of CHO-K1 Cells
CHO-K1(−) cells were transduced with the plasmid pIRESneo-Myc/hSSTR2 using Lipofectamine 2000 (Invitrogen). After 48 hours, selection was carried out by replacing the medium with the one containing 1 mg/mL of Geneticin to establish a stable overexpressing cell line (SSTR2-CHO-K1).
(4) Evaluation of SSTR2 Agonistic Activity
The human SSTR2 agonistic activity of a test compound was evaluated according to the following procedures by using a suppression activity of intracellular cyclic AMP (cAMP) production by forskolin stimulation as an index. SSTR2-CHO-K1 cells suspended in Ham's F-12 medium (containing foetal bovine serum (10%), penicillin (100 U/mL) and streptomycin (0.1 mg/mL)) supplemented with 0.25 mg/mL of Geneticin were inoculated into a 96-well plate at a density of 4.0×10^4 cells/0.1 mL per well. On the next day, the medium was removed and washed twice with 0.1 mL of wash buffer [0.1% bovine serum albumin (BSA), 20 mmol/L 4-(2-hydroxyethyl)-1-piperazineethane sulphonic acid (HEPES)-containing Hank's balanced salt solution (HBSS)]. An assay buffer [[…] 3-isobutyl-1-methylxanthine (IBMX), 0.1% BSA, 20 mmol/L HEPES-containing HBSS] was added to the wells at 0.06 mL per well and the plate was incubated for 15 minutes under the conditions of 5% carbon dioxide and 37° C. Thereafter, an assay buffer containing a test compound at a concentration twice as high as the final concentration and 0.02 mmol/L of forskolin was added to wells at 0.06 mL per well and the plate was incubated for 30 minutes under the conditions of 5% carbon dioxide and 37° C. Thereafter, the Assay/Lysis buffer included in the cAMP-Screen® kit (available from Applied Biosystems) was added to wells at 0.12 mL per well and the plate was incubated for 30 minutes under the conditions of 5% carbon dioxide and 37° C. The concentration of cAMP in samples were measured by ELISA according to the instruction of the kit.

[1] = Human hepatic microsome stability test; format: in vitro ADME; conditions: human hepatic microsomes 1 mg/mL; 60 minutes; test compound 0.001 mmol/L; 37° C.
Method: Human Hepatic Microsome Stability Test
To a reaction vessel heated to 37° C. in a water bath, 0.392 mL of phosphate buffer (0.1 mol/L, pH 7.4) containing human hepatic microsomes (1 mg/mL, Xenotech) and NADPH-Co-factor (NADP+1.3 mmol/L, BD-Bioscience) was added and pre-incubated for 5 minutes. A 50% acetonitrile solution (0.008 mL) containing 0.05 mmol/L of a test compound was added thereto to initiate the enzyme reaction (final concentration of the test compound: 0.001 mmol/L). Immediately after initiation of the reaction and at 60 minutes thereafter, 0.050 mL of the reaction solution was respectively collected, which was immediately added to an acetonitrile solution (0.2 mL) containing an internal standard (45 nmol/L, 1-[3-(3,5-dimethylphenyl)-4-quinolinyl]-4-piperidineamine) to terminate the enzyme reaction.
The residual rate (%), which is indicative of stability of the test compound, was calculated using the ratio of peak areas between the test compound and the internal substance determined by LC/MS/MS (TSQ Quantum Discovery MAX, Thermo) analysis of the sample thus prepared by the above procedures followed by filtration, and the equation: {[residual rate (%)=[peak area of a test compound in a sample at 60 minutes after initiation of the reaction/peak area of the internal standard]/[peak area of the test compound in the sample immediately after initiation of the reaction/peak area of the internal standard]×100}.

[2] = system: growth hormone (GH) secretion; assay: Evaluation of suppression of growth hormone (GH) secretion using rats (GHRH-induced); format: in vivo; conditions: Rattus norvegicus, Procedure (B): oral administration 8 hours beforehand, read-out: percentage of suppression of GH secretion
Method: Evaluation of Suppression of Growth Hormone (GH) Secretion Using Rats
[Procedure (A): Administration of a Test Compound 30 Minutes Beforehand]
A medium (distilled water (Otsuka distilled water, Otsuka Pharmaceutical Factory, […]) IGS rats (Charles River Laboratories Japan, Inc.)) and after 27 minutes, the animals were administered with 50 mg/kg of pentobarbital sodium (Somnopentyl, Kyoritsu Seiyaku Corporation) via the tail vein for anaesthesia. Three minutes after administration of pentobarbital sodium, the rats were administered with 0.01 mg/kg of growth hormone-releasing hormone (GHRH, Bachem) via the tail vein to induce GH secretion. In order to measure the blood GH concentration, 0.2 mL of blood was collected through the jugular vein at 5 minutes after administration of GHRH. The collected blood was centrifuged at 4° C., 13,000×g for 5 minutes to obtain plasma. The blood GH concentration was measured by using Rat/Mouse Growth Hormone ELISA (Millipore) following the instruction of the kit. The percentage (%) of suppression of GH secretion was determined by using the obtained blood GH concentration and the equation {[suppression (%) of GH secretion]=([blood GH concentration of the group administered with the medium]−[blood GH concentration of the group administered with a test compound])/[blood GH concentration of the group administered with the medium]×100}. In the equation, the group administered with the medium represents the group of animals administered with the medium and the group administered with a test compound represents the group of animals administered with a test compound dissolved in the medium.
[Procedure (B): Administration of a Test Compound 8 Hours Beforehand]
A medium (distilled water (Otsuka distilled water, Otsuka Pharmaceutical Factory, […]) IGS rats (Charles River Laboratories Japan, Inc.)) and after 7 hours and 57 minutes, the animals were administered with 50 mg/kg of pentobarbital sodium (Somnopentyl, Kyoritsu Seiyaku Corporation) via the tail vein for anaesthesia. Three minutes after administration of pentobarbital sodium, the rats were administered with 0.01 mg/kg of growth hormone-releasing hormone (GHRH, Bachem) via the tail vein to induce GH secretion. The rest of the procedure is the same as in [Procedure (A)] described above.

[3] = Evaluation of cytotoxicity using cultured human hepatocytes (intracellular ATP); format: cell-based; conditions: read-out: IC50 of cytotoxicity (concentration at which 50% of the luminescence is suppressed)
Method: Evaluation of Cytotoxicity Using Cultured Human Hepatocytes
Frozen adhesive human hepatocytes were thawed, suspended in a hepatocellular medium (HCM) purchased from Lonza and inoculated to a 96-well plate coated with collagen. The culture medium of the hepatocytes cultured overnight in an incubator (5% carbon dioxide, 95% air, 37° C.) was exchanged to the medium containing a test compound at a concentration of 0, 12.5, 25, 50, 100, 200 or 400 (×10^−6 mol/L) and the cells were further cultured for 24 hours. Cytotoxicity was evaluated by measuring the intracellular ATP concentration. Specifically, using the Promega Celltiter-Glo luminescent assay kit available from Promega, cells were lysed in the assay buffer included in the kit and the concentration of ATP released from the cells was measured according to the luminescence resulting from luciferin-luciferase enzyme activity. The luminescence was measured on the SpectraMax plate reader from Molecular Devices. The extent of cytotoxicity of a test compound is represented by the concentration (IC50) of the compound at which 50% of the luminescence is suppressed.

T1 sequence (P30874 whole entry): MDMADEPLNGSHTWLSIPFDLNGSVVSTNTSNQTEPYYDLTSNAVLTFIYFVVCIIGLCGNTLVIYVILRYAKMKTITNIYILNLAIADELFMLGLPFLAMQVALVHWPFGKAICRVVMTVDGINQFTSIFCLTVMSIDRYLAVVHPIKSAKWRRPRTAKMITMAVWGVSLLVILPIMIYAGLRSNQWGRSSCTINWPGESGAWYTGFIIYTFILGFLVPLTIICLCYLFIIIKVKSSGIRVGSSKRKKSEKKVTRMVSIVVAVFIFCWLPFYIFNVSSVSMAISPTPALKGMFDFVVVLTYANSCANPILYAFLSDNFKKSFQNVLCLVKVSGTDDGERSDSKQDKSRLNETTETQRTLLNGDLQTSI

Row | Compound | EC50 (human SSTR2) [nM] | residual rate [1] [%] | inhibition in vivo at 1 mg/kg [2] [%] | IC50 at 24 h [3] [nM] | inhibition in vivo at 10 mg/kg ([2]; 10 mg/kg) [%]
1 | N#CC1(c2ccc(-c3cncc(-c4cc(Cl)cc(Cl)c4)c3N3CCC(N)CC3)cc2)CC1 [Example 2(2), 1-{4-[4-(4-amino-1-piperidinyl)-5-(3,5-dichlorophenyl)-3-pyridinyl]phenyl}cyclopropanecarbonitrile] | 0.013 | 100.0 | 93 | 11000 | 
2 | N[C@@H]1CCN(c2c(-c3ccc(C(F)(F)F)cc3)cncc2-c2cc(Cl)cc(Cl)c2)C[C@@H]1O [Example 6, (3S,4R)-4-amino-1-{3-(3,5-dichlorophenyl)-5-[4-(trifluoromethyl)phenyl]-4-pyridinyl}-3-piperidinol] | 0.027 | 89.9 | 89 |  | 
3 | CCNC1CCN(c2c(/C=C(\C)c3cccc(F)c3)cncc2-c2cc(Cl)cc(Cl)c2)CC1 [Example 5(5), 1-{3-(3,5-dichlorophenyl)-5-[(1E)-2-(3-fluorophenyl)-1-propen-1-yl]-4-pyridinyl}-N-ethyl-4-piperidineamine] | 0.071 | 88.6 | 85 | 17000 | 
4 | N#Cc1cccc(/C=C/c2cncc(-c3cc(Cl)cc(Cl)c3)c2N2CCC(N)CC2)c1 [Example 4(1), 3-{(E)-2-[4-(4-amino-1-piperidinyl)-5-(3,5-dichlorophenyl)-3-pyridinyl]vinyl}benzonitrile] | 0.038 | 49.9 | 84 |  | 
5 | CO[C@@H]1CN(c2c(-c3ccc(C(F)(F)F)cc3)cncc2-c2cc(Cl)cc(Cl)c2)CC[C@H]1N (racemic) [Example 2(6), rac-(3R,4R)-1-{3-(3,5-dichlorophenyl)-5-[4-(trifluoromethyl)phenyl]-4-pyridinyl}-3-methoxy-4-piperidineamine] | 0.47 |  |  |  | 
6 | C/C(=C\c1cncc(-c2cc(Cl)cc(Cl)c2)c1N1CCC(N)CC1)c1cccc(C#N)c1 [Example 4, 3-{(1E)-1-[4-(4-amino-1-piperidinyl)-5-(3,5-dichlorophenyl)-3-pyridinyl]-1-propen-2-yl}benzonitrile] | 0.034 | 100.0 | 84 | 17000 | 
7 | C/C(=C\c1cncc(-c2cc(Cl)cc(Cl)c2)c1N1CCC(N)CC1)c1cccc(F)c1 [Example 3, 1-{3-(3,5-dichlorophenyl)-5-[(1E)-2-(3-fluorophenyl)-1-propen-1-yl]-4-pyridinyl}-4-piperidineamine] | 0.04 | 85.2 | 88 | 36000 | 
8 | NC1CCN(c2c(NC(=O)c3cccc(Cl)c3)cncc2-c2cc(F)cc(Cl)c2)CC1 [Example 7, N-[4-(4-amino-1-piperidinyl)-5-(3-chloro-5-fluorophenyl)-3-pyridinyl]-3-chlorobenzamide] | 0.34 | 100.0 |  | 74000 | 93
9 | NC1CCN(c2c(-c3ccc(OC(F)F)cc3)cncc2-c2cc(Cl)cc(Cl)c2)CC1 [Example 2(3), 1-{3-(3,5-dichlorophenyl)-5-[4-(difluoromethoxy)phenyl]-4-pyridinyl}-4-piperidineamine] | 0.021 | 96.4 | 88 | 9000 | 
10 | Fc1cccc(/C=C/c2cncc(-c3cc(Cl)cc(Cl)c3)c2N2CC[C@@H]3NCCO[C@H]3C2)c1 [Example 3(2), (4aS,8aS)-6-{3-(3,5-dichlorophenyl)-5-[(E)-2-(3-fluorophenyl)vinyl]-4-pyridinyl}octahydro-1H-pyrido[3,4-b][1,4]oxazine] | 0.097 | 48.4 | 84 | 17000 | 
11 | Cc1cc(C)cc(-c2cncc(-c3nc4c(C)cc(C)cc4[nH]3)c2N2CCC(N)CC2)c1 [formula (P), reference compound] |  | 1.2 |  |  | 
12 | CO[C@@H]1CN(c2c(-c3ccc(C(F)(F)F)cc3)cncc2-c2cc(Cl)cc(Cl)c2)CC[C@@H]1N (racemic) [Example 2(7), rac-(3R,4S)-1-{3-(3,5-dichlorophenyl)-5-[4-(trifluoromethyl)phenyl]-4-pyridinyl}-3-methoxy-4-piperidineamine] | 0.17 |  |  |  | 
13 | Cc1cc(C)cc(-c2cnc3cc(Cl)c(-c4cnn(C)c4)cc3c2OCC[C@H]2CCCCN2)c1 [formula (M), reference compound] |  |  |  | 13000 | 
